Where “and” joins values, the source holds several entries; their conditions need not be identical. Identical values can stand only once.

A word on the melting point: it is the temperature of the solid-liquid transition.

In the case of `CCC(C)CCCC(=O)N[C@@H](CCN)C(=O)N[C@H](C(=O)N[C@@H](CCN)C(=O)N[C@H]1CCNC(=O)[C@H]([C@@H](C)O)NC(=O)[C@H](CCN)NC(=O)[C@H](CCN)NC(=O)[C@H](CC(C)C)NC(=O)[C@@H](CC(C)C)NC(=O)[C@H](CCN)NC1=O)[C@@H](C)O` (stereo partly specified) [Colistin], the melting point was found to be 210 °C. With `c1ccc([SiH](c2ccccc2)c2ccccc2)cc1` [triphenylsilane], the melting point turned out to be 43 °C. The compound `O=C(/C=C/c1ccc(-c2ccccc2)o1)c1ccco1` [(2E)-1-(2-furyl)-3-(5-phenyl-2-furyl)prop-2-en-1-one] displayed a melting point of 100 °C.

The compound `CCC(CC)CO` [2-ethyl-1-butanol] yielded a melting point of -52 °C. The compound `Nc1cc(Cl)ccc1Cl` [2,5-dichloroaniline] showed a melting point of 50 °C.

The compound `CC(=O)OCC(COC(C)=O)OC(C)=O` [glycerol triacetate] gave a melting point of 3 °C. The compound `Cc1cc(C)c(C(=O)C(=O)O)c(C)c1` [mesitylglyoxylic acid] yielded a melting point of 121 °C. `CC(C)OB(OC(C)C)OC(C)C` [triisopropyl borate] gave a melting point of -59 °C. Compound `CCC(C)c1cc([N+](=O)[O-])cc([N+](=O)[O-])c1O` (stereo unspecified) [2-sec-Butyl-4,6-dinitrophenol] displayed a melting point of 55 °C. The figure for `CC(=O)Nc1ccc(/C=C/c2ccc(NC(C)=O)cc2)cc1` [N,N'-[(E)-ethene-1,2-diyldibenzene-4,1-diyl]diacetamide] is 219 °C; for `Cc1ccc(C)cc1` [p-xylene] it is 13 °C. The figure for `CCCSC` [methyl n-propyl sulfide] is -113 °C. For the compound `CCCCCCCCCCC=O` [undecanal], the melting point is 0 °C and -2 °C. Compound `C[Si](C)(C)OB(O[Si](C)(C)C)O[Si](C)(C)C` [tris(trimethylsilyl) borate] showed a melting point of -35 °C. In turn, `Clc1cc(Cl)cc(Cl)c1` [1,3,5-Trichlorobenzene] registered a melting point of 64 °C.

Consider `NC(=O)c1ccccc1N` [2-aminobenzamide], for which the melting point was 112 °C. With `[O-][n+]1cccc(F)c1` [3-fluoropyridine n-oxide] the figure was 67 °C; with `Clc1ccc(-c2ccc(Cl)c(Cl)c2Cl)cc1Cl` [PCB-105], 117 °C; with `N#CC(Cl)(Cl)Cl` [Trichloroacetonitrile], -42 °C. Compound `O=C(O)c1cc([N+](=O)[O-])ccc1Br` [2-bromo-5-nitrobenzoic acid] yielded a melting point of 180 °C. With `C=COC(C)=O` [vinyl acetate] the figure was -100 °C; with `COC(=O)c1cccc(O)c1` [methyl_3-hydroxybenzoate], 74 °C; with `O=c1[nH]cc(F)c(=O)[nH]1` [fluorouracil], 282 °C. On to `COC(=O)c1cccc(Cl)c1` [methyl 3-chlorobenzoate], for which the melting point came out at 21 °C. With `CCS(=O)(=O)CCO` [2-(ethylsulfonyl)ethanol] the figure was 38 °C; with `CC(=O)c1ccc(Cl)c(Cl)c1` [3',4'-dichloroacetophenone], 74 °C; with `CC1CCC(C(C)C)C(O)C1` (stereo unspecified) [2-Isopropyl-5-methylcyclohexanol], 34.5 °C. In the case of `COc1cc(OC)cc(OC)c1` [1,3,5-trimethoxybenzene], the melting point is 53 °C. Consider `OB(O)c1ccc(Br)cc1F` [4-bromo-2-fluorobenzeneboronic acid], for which the melting point was 240 °C. `CC(=O)c1ccc(-c2ccccc2)cc1` [p-acetylbiphenyl]: the melting point was found to be 122 °C. The compound `O=[N+]([O-])c1ccc(Cl)cc1Cl` [2,4-dichloro-1-nitrobenzene] showed a melting point of 31 °C. `Cc1c2oc3c(C)ccc(C(=O)NC4C(=O)NC(C(C)C)C(=O)N5CCCC5C(=O)N(C)CC(=O)N(C)C(C(C)C)C(=O)OC4C)c3nc-2c(C(=O)NC2C(=O)NC(C(C)C)C(=O)N3CCCC3C(=O)N(C)CC(=O)N(C)C(C(C)C)C(=O)OC2C)c(N)c1=O` (stereo unspecified) [Dactinomycin] registered a melting point of 242 °C. The figure for `COc1ccc(OC)c2c1C(=O)OC2O` (stereo unspecified) [3-hydroxy-4,7-dimethoxy-2-benzofuran-1(3H)-one] is 192 °C; for `Cc1cccc(C)c1[N+](=O)[O-]` [2-nitro-m-xylene] it is 15 °C.

`O=C1c2ccccc2CCc2ccccc21` [dibenzosuberone] displayed a melting point of 33 °C.

In the case of `NC(=O)Cc1ccc(O)cc1` [4-hydroxyphenylacetamide], the melting point was 174 °C. Turning to `O=[N+]([O-])c1ccccc1CCl` [2-nitrobenzyl_chloride], the melting point came out at 48 °C. Take `C=C(CC(=O)O)C(=O)O` [itaconic acid]: the melting point came out at 167 °C.

`O=C(O)CSCc1ccccc1` [(benzylthio)acetic acid]: the melting point is 62 °C. `CC(=O)c1ccc(Br)cc1` [4'-bromoacetophenone] registered a melting point of 51 °C.

In turn, `COC(=O)c1ccccc1S(N)(=O)=O` [2-(methoxycarbonyl)benzenesulfonamide] showed a melting point of 124 °C. For the compound `O=C(O)C1CCN(C(=O)CCl)CC1` [N-chloroacetylisonipecotic acid], the melting point worked out at 110 °C. With `[2H]C([2H])=C(C(=O)OC([2H])([2H])[2H])C([2H])([2H])[2H]` [(~2~H_3_)Methyl 2-(~2~H_3_)methyl(~2~H_2_)prop-2-enoate] the figure was -48 °C. Compound `NNC(=O)NN` [Carbonohydrazide] yielded a melting point of 158 °C. `CC12CCC3C(CCC4CC(CC(=O)O)=CCC43C)C1CCC2=O` (stereo unspecified) [(17-oxoandrost-2-en-3-yl)acetic acid] yielded a melting point of 177 °C.

`C[C@@H](O)CO` [1,2-Propanediol] showed a melting point of -60 °C. For `CC(C)CCC[C@@H](C)[C@H]1CC[C@H]2[C@@H]3CC=C4C[C@@H](O)CC[C@]4(C)[C@H]3CC[C@]12C` [cholesterol], the melting point was 148 °C (3×) and 149 °C. `CC(=O)CCC(C)=O` [acetonylacetone]: the melting point was -6 °C. With `Cc1c(N(C)C)c(=O)n(-c2ccccc2)n1C` [4-(dimethylamino)antipyrine] the figure was 107 °C; with `CC(C)=CCC/C(C)=C/CO` [geraniol], -15 °C. With `O=C(O)[C@@H]1CCCN1C(=O)OCc1ccccc1` [N-Cbz-L-proline] the figure was 77 °C; with `O=C(O)c1c(F)c(F)c(F)c(F)c1F` [pentafluorobenzoic acid], 102 °C; with `C[C@]12CCC(=O)C=C1CC[C@@H]1[C@@H]2C(=O)C[C@@]2(C)[C@H]1CC[C@]2(O)C(=O)CO` [Cortisone], 225 °C. In the case of `O=[N+]([O-])c1cccnc1Cl` [2-chloro-3-nitropyridine], the melting point came to 101 °C. With `Cc1ccccc1C(=O)O` [o-toluic_acid] the figure was 105 °C; with `O=C(O)Cc1nn(Cc2nc3cc(C(F)(F)F)ccc3s2)c(=O)c2ccccc12` [zopolrestat], 197 °C; with `Clc1ccc(Cl)cc1` [1,4-dichlorobenzene], 54 °C. With `Clc1ccc(Cl)c(Cl)c1` [1,2,4-Trichlorobenzene] the figure was 17 °C; with `O=C(O)CCCCCCC[C@H](O)[C@H](O)CCCCCCO` [erythro-aleuritic acid], 99 °C; with `CNC(=O)Oc1cccc2ccccc12` [1-Naphthyl methylcarbamate], 142 °C. Regarding `NC(=O)c1ccncc1` [isonicotinamide], the melting point came to 157 °C. Turning to `O=C1CCCCC1` [cyclohexanone], the melting point was -29 °C and -27.9 °C.

`CN1N=C(C(C)(C)C)CC1=O` [3-tert-butyl-1-methyl-2-pyrazolin-5-one] yielded a melting point of 149 °C. The compound `C1CCC(NC2CCCCC2)CC1` [dicyclohexylamine] registered a melting point of -2 °C.

`COc1cc2nc(N3CCN(C(=O)c4ccco4)CC3)nc(N)c2cc1OC` [Prazosin] had a melting point of 279 °C. Compound `c1ccc2cc3c(ccc4ccccc43)cc2c1` [benzanthracene] gave a melting point of 160 °C. In turn, `CC1(c2ccccc2)OC(C(=O)O)=CC1=O` (stereo unspecified) [acifran] returned a melting point of 176 °C. As to `O=C1C=CC(=O)c2ccccc21` [1,4-Naphthoquinone], the melting point was found to be 126 °C. The figure for `O=C[C@H](O)[C@@H](O)[C@@H](O)CO` (racemic) [dl-arabinose] is 159 °C. The figure for `ClB(Cl)c1ccccc1` [dichlorophenylborane] is 7 °C; for `CCO[SiH](OCC)OCC` [triethoxysilane] it is -170 °C. In turn, `CC(C)(C)c1ccc2oc(-c3ccc(-c4nc5cc(C(C)(C)C)ccc5o4)s3)nc2c1` [2,5-bis(5-tert-butyl-2-benzoxazolyl)thiophene] displayed a melting point of 201 °C. `COc1ccc2c(c1)CC2O` (stereo unspecified) [3-methoxybicyclo[4.2.0]octa-1,3,5-trien-7-ol]: the melting point is 38 °C.

The compound `CC=C(C)CC` [3-methyl-cis-2-pentene] displayed a melting point of -135 °C. `CCC(C)C1(CC)C(=O)NC(=O)NC1=O` (stereo unspecified) [Butabarbital] registered a melting point of 166 °C. For the compound `CC1=C(CC(=O)O)c2cc(F)ccc2/C1=C\c1ccc(S(C)=O)cc1` (stereo unspecified) [sulindac], the melting point was 184 °C. Turning to `c1ccc(CN(Cc2ccccc2)c2ccccc2)cc1` [N,N-dibenzylaniline], the melting point turned out to be 70 °C.

With `NC(=O)c1ccccc1Cc1ccccc1` [o-benzylbenzamide], the melting point came out at 165 °C.

The compound `CCCCI` [1-Iodobutane] registered a melting point of -103 °C. With `C=COC(C)=O` [Vinyl acetate] the figure was -100 °C. Regarding `C=CC(C)(C)C` [3,3-dimethyl-1-butene], the melting point was -115 °C. For the compound `CCCC=O` [butanal], the melting point was -97 °C. Regarding `OC1CCCC1` [cyclopentanol], the melting point is -17.5 °C and -16.2 °C. `C=CCN1CC[C@]23CCCC[C@H]2[C@H]1Cc1ccc(O)cc13` [Levallorphan] had a melting point of 181 °C. `CCCCCCCC(=O)O` [Caprylic acid]: the melting point is 16.3 °C. With `CO[SiH](OC)OC` [Trimethoxysilane] the figure was -115 °C.

The values are drawn from the Bradley open melting point set (2014).
